What was measured:
[1] = test system: MM.1S cells; experiment: TUNEL assay; type: cell-based, human; conditions: 10 ug/ml, 48 h
Experimental: (§1) Assessment of HNK-induced cytotoxicity against patient MM cells: […] A CD38^high fraction enriched for MM cells was determined in side and forward scatter panel in each case. The expression of CD138 on gated cells was also evaluated. After HNK-treatment for 48 h, cells were harvested and percentage of CD38^high cells with or without HNK-treatment was evaluated. Cell cycle analysis: MM cells cultured with HNK were harvested, fixed with 70% ethanol, and pretreated with 250 μg/mL of RNAse (Sigma, St Louis, Mo.). Cells were stained with propidium iodide (PI; 50 μg/mL; Sigma, St Louis, Mo.), and cell cycle profile was determined by using the program M software on an EPICS XL flow cytometer (Beckman Coulter, Hialeah, Fla.). […] Fluorescence intensity of TUNEL and APO 2.7 staining was determined using on EPICS XL flow cytometer. Cytotoxicity was determined by trypan blue exclusion assay. […] Cell growth and induction of apoptosis were determined both by colorimetric assay and now cytometric detection of APO2.7 after 48 h treatment. […] Proliferation of MM cells was then assessed by [^3H]-thymidine uptake. […] DNA synthesis was measured by [^3H]-thymidine uptake. […] Angiogenesis assay: The anti-angiogenic effect of HNK was determined using an In Vitro Angiogenesis Assay Kit (Chemicon, Temecula, Calif.). […] After 6 h, tube formation by endothelial cells was evaluated. […]

[2] = test system: RPM18226 cells; experiment: TUNEL assay; type: cell-based, human; conditions: RPM18226, 10 ug/ml, 48 h
Experimental: as §1

[3] = test system: KBM-5 cells; experiment: Annexin V assay; type: cell-based, human; conditions: KBM-5, honokiol 12 h then 1 nM TNF 16 h
Source text: (D) depicts that honokiol enhances TNF-induced cell death.
Annexin V assay. One of the early indicators of apoptosis is the rapid translocation and accumulation of the membrane phospholipid phosphatidylserine from the cell's cytoplasmic interface to the extracellular surface. This loss of membrane asymmetry can be detected using the binding properties of annexin V. Annexin V antibody conjugated with the fluorescent dye FITC was used to detect apoptosis. Briefly, 1×10^6 cells were pretreated with […] honokiol for 12 h, treated with 1 nM TNF for 16 h, and then subjected to annexin V staining. Cells were washed, stained with FITC-conjugated anti-annexin V antibody, and then analyzed with a flow cytometer (FACSCalibur; BD Biosciences).
By using caspase-activated PARP cleavage, it was shown that the enhanced cytotoxicity was due to apoptosis. TNF-induced PARP cleavage was enhanced in the honokiol-treated cells (FIG. 26C).

[4] = test system: NF-kB in A293 cells; experiment: NF-kB-dependent reporter gene (SEAP) transcription; type: cell-based, human; conditions: A293, 25 mM (printed) honokiol 12 h
Experimental: A293 cells were transiently transfected with an NF-kB-containing plasmid linked to the SEAP gene and then treated with the indicated concentrations of honokiol. After 24 h in culture with 0.1 nM TNF, cell supernatants were collected and assayed for SEAP activity. Results are expressed as fold activity over the activity of the vector control. […] A293 cells were transiently transfected with the indicated plasmids along with an NF-kB-containing plasmid linked to the SEAP gene and then left either untreated or treated with 25 mM honokiol for 12 h. Cell supernatants were assayed for secreted alkaline phosphatase activity. Results are expressed as fold activity over the activity of the vector control. Bars indicate standard deviation.
NF-kB-dependent reporter gene transcription. The effect of honokiol on TNF-induced NF-kB dependent reporter gene transcription in A293 cells was measured as previously described (Shishodia, S., et al. 2003 Cancer Res. 63:4375-4383).
To test the effect of honokiol on NF-kB-dependent gene transcription, cells were transiently transfected with the NF-kB-regulated SEAP reporter construct and then stimulated with TNF.

[5] = test system: collagen induced arthritis (CIA); experiment: collagen induced arthritis (CIA); type: in vivo, C57Bl/6 and LMP1 transgenic mice; conditions: 3 mg/mouse/day i.p. from day 21 post-immunization
Experimental: Female mice expressing the mCD40-LMP1 transgene (on a CD40−/− background) were bred in our transgenic mouse facility. Mice were either left naïve, immunized in the tail s.c. with […] Type II Chicken Collagen (Sigma) dissolved in 10 mM acetic acid and emulsified in IFA (Sigma) containing 5 mg/ml H37 RA heat-killed mycobacteria (Difco) (CFA), or immunized with 10 mM acetic acid emulsified in CFA. Some of the mice were injected i.p. with 3 mg/mouse/day honokiol suspended in 20% Intralipid, starting at day 21 post-immunization.

[6] = test system: KBM-5 cells; conditions: KBM-5, 72 h, with TNF, paclitaxel or doxorubicin
Experimental: KBM-5 cells (5000 cells/0.1 ml) were incubated at 37° C. with TNF, paclitaxel or doxorubicin in the presence and absence of 5 mM honokiol as indicated for 72 h, and the viable cells were assayed using the MTT reagent. The results are expressed as mean cytotoxicity ±SD from triplicate cultures.
Cytotoxicity assay Cytotoxicity was assayed by the modified tetrazolium salt 3-(4-5-dimethylthilozol-2-yl)-2-5-diphenyl-tetrazolium bromide (MTT) assay as described previously (Bharti, A. C., et al. 2004 J. Biol. Chem. 279:6065-6076).
The effect of honokiol on TNF and chemotherapeutic agent-induced apoptosis was examined by the MTT assay.

C=CCc1ccc(O)c(-c2ccc(O)c(CC=C)c2)c1 [HNK, Honokiol]
TUNEL positive cells [1]: 38.2%
TUNEL positive cells [2]: 41.5%
TNF-induced early apoptosis (annexin V staining) [3]: quite effective in enhancing the effects of TNF
SEAP expression induced by TNFR1, TRADD, TRAF2, NIK, IKKb, and p65 plasmids [4]: suppressed SEAP expression in all cells except those transfected with p65
collagen induced arthritis (CIA) pathology [5]: stablizes collagen induced arthritis (CIA) pathology
cytotoxic effects of TNF and chemotherapeutic agents (MTT) [6]: enhanced the cytotoxic effects of TNF, paclitaxel, and doxorubicin
